According to patent US20110245323A1, “RIG-Like Helicase Innate Immunity Inhibits VEGF-Induced Tissue Responses” (Yale University, priority 2006, published 2011):
“Also recorded” adds a separate entry of the source.

Assays:
Type in all cases: in vivo, mouse
[1] = test system: CC10-rtTA-VEGF165 transgenic mice; assay: BAL inflammatory cell recovery, VEGF-induced inflammation
Description: The CC10-rtTA-VEGF165 transgenic mice used in this study were generated and used as described previously (Lee et al., 2004, Nature Medicine 10:1095-103), which reference is incorporated herein in its entirety. These animals were housed under barrier conditions in the animal facility at Yale University School of Medicine. In these experiments 6-8 week old transgenic (Tg+) animals and their transgene negative littermate controls (Tg−) were randomized to receive water with doxycycline (dox) (0.5 mg/ml) or normal water. Two weeks later they were sacrificed and the VEGF-induced phenotype was evaluated as described below (Lee et al., 2004, Nature Medicine 10:1095-103).
To define the effects of these agents on the tissue responses induced by VEGF, two experimental procedures were used. In the first, a pretreatment protocol was used. In these experiments the noted innate immunity agonist ([…] unless otherwise indicated) or its vehicle control (PBS) were administered intranasally and aspirated into the lungs of randomized Tg+ and Tg− mice starting one day before the Dox water treatment. The doses were administered to the mice every other day during the 2 week doxyxycline (dox) treatment interval.
To determine if the innate immunity agonists altered established VEGF-induced tissue responses, a “post treatment” protocol was used in selected experiments. In these experiments the innate immunity agonist was administered 2 days or 14 days after the doxycycline and VEGF-induced responses were evaluated 2 weeks later.
(§1) To define the effects of Poly(I:C) a number of protocols were employed. In most experiments, a pretreatment-2 week protocol was employed. In these experiments, WT and Tg+ mice were treated with Poly(I:C) (30 μg in 50 lambda unless otherwise indicated; Amersham Biosciences, N.J.) or vehicle control via nasal aspiration and transgene activation was accomplished via the administration of dox (0.5 mg/ml) in the animal's drinking water 24 hours later. The Poly(I:C) was administered every other day and the dox was administered continuously for up to 2 weeks.
Lastly, in selected experiments post-transgene activation protocols were employed. In these experiments dox was administered for 2 days or 2 weeks. The Poly(I:C) was then administered via intranasal aspiration every other day for 2 weeks as disclosed elsewhere herein. In selected pre-treatment and post-transgene activation experiments, unmethylated CpG (CpG-B) (Keck Center, Yale University) was also employed at similar doses. At the end of these intervals, assessments of angiogenesis (anti-CD31 immunohistochemistry), vascular permeability (Evan's blue dye extravasation, wet to dry lung weight measurements, BAL protein concentration), BAL and tissue inflammatory cell infiltration and mucus metaplasia (periodic acid-Schiff (PAS) staining, MUC5AC immunoblotting) were undertaken. In all cases experiments were designed to compare Tg− and Tg+ mice on normal water and Tg− and Tg+ mice on dox water.
(§2) Mice were sacrificed using intraperitoneal ketamine/xylazine injection and the trachea was cannulated and perfused with two 0.9 nil aliquots of cold saline. The cellular contents and BAL fluid were separated by centrifugation, the BAL cell number was quantitated and cell differential was assessed. The BAL fluid was stored in aliquots at −80° C.

transgenic hVEGF = assay: BAL levels of transgenic VEGF by ELISA; conditions: Tg+ mice, Poly(I:C) vs vehicle; doses <30 μg
Description: WT and CC10-rtTA-VEGF mice were used in these studies. The latter used the Clara cell 10-kDa protein (CC10) promoter and two transgenic constructs to target VEGF to the lung in an externally regulatable fashion. The human (h) VEGF165 transgene in these mice was activated via the administration of doxycycline (dox) as previously described (Lee et al., 2004, Nat Med 10:1095-1103). In the wild type (WT) mice on normal or dox water and the Tg+ mice on normal water, hVEGF levels in bronchoalveolar lavage fluids (BAL) were <10 pg/ml. Increased levels of BAL VEGF were noted within 24 hours and steady state levels between 0.5 and 1.2 ng/ml were seen after 1 week of dox administration (FIG. 28).
as §1
(§3) ELISA assay kits for VEGF and IL-13 were purchased from R&D Systems (Minneapolis, Minn.).

[2] = test system: OVA sensitized and challenged mice; assay: Ovalbumin (OVA) sensitization and challenge Th2 inflammation model
Description: as §2, §3
(§4) OVA sensitization (with alum) and aerosol OVA challenge were undertaken as previously described (Lee et al., 2008, Am J Respir Cell Mol Biol 39:739-746; Lee et al., 2009, J Exp Med 206:1149-1166). The responses in mice that had been treated with Poly(I:C) or vehicle 24 hours before the aerosol challenge were compared. The BAL and tissue responses were evaluated 24 hours after antigen challenge.

IFN-α and IFN-β = assay: BAL Type I IFNs by ELISA; conditions: WT (Tg−) and VEGF Tg+ animals
Description: ELISA and activity assay kits for IFNa and IFNβ analysis were purchased from PBL Biomedical Laboratories (Piscataway, N.J.). ELISAs for eotaxin/CCL11, MCP-1/CCL2, KC/CXCL1 and MIP-2/CXCL14 were obtained from R&D Systems (Minneapolis, Minn. USA). Each was performed according to the manufacturer's instructions.

MAVS = assay: Poly(I:C) effects in MAVS null mice
Description: (§5) TLR3^−/−-mice were a gift from Dr. Richard A. Flavell (Yale University), MAVS null mice were a gift from Dr Zijian J. Chen (U of Texas Southwestern) (Sun et al., 2006, Immunity 24:633-642), double stranded RNA-dependent protein kinase null mutant mice (PKR^−/−) were a gift from Dr. Bryan R. G. Williams (Cleveland Clinic Foundation) (Yang et al., 1995, Embo J 14:6095-6106) and IFNAR1 null mice were obtained from Dr. Richard Enelow (Dartmouth). These mice were bred with the VEGF Tg+ mice to generate transgenic mice with wild type (+/+) or null (−/−) TLR3, MAVS, PKR or IFNAR1 loci. Thus, in each given experiment, the effects in transgene negative (Tg−) and transgenic (Tg+) mice with WT and null TLR3, MAVS, PKR or IFNAR1 loci were compared.
as §1, §4

IFNAR1 = assay: Poly(I:C) regulation of VEGF responses in IFNAR1 null VEGF Tg+ mice
Description: as §5
as §1, with “weeks. […]” for “weeks.”

PKR = assay: Poly(I:C) regulation of VEGF responses in PKR null VEGF Tg+ mice; conditions: angiogenesis and dye extravasation
Description: as §5, §1

[3] = Tg+ mice, pretreatment, vs vehicle

polyinosinic-polycytidylic acid [Poly(I:C)]
VEGF-induced inflammation, delayed administration ([1]; Tg+ mice, given 2 days (48 hours) or 14 days after transgene activation with dox): significant decrease; also recorded: significant regulation
recovery of macrophages, eosinophils and lymphocytes during BAL ([1]; Tg+ mice, pretreatment, p<0.05): significantly decreased
BAL neutrophil accumulation [1, 3]: increased
total recovery of inflammatory cells during BAL / VEGF-induced inflammation [1, 3]: markedly decreased; also recorded: inhibited
Total cells (×10^4) ([1]; VEGF-induced tissue responses, TLR agonist administration, PBS control 50): 22 ×10^4
lowest dose with significant alterations of VEGF-induced inflammation ([1]; pretreatment): 5 µg
dose with maximal regulation of VEGF-induced inflammation ([1]; pretreatment, highest dose tested): 30 µg
levels of production of transgenic VEGF in BAL fluids (transgenic hVEGF): did not alter
OVA-induced cytokine response (BAL IL-13) [2]: significant decrease
OVA-induced inflammatory response (BAL total cell, macrophage, eosinophil, lymphocyte recovery) ([2]; Poly(I:C) 24 hours before aerosol challenge): significant decrease; also recorded: abrogated
production of IFN-α and IFN-β in BAL (IFN-α and IFN-β): potent stimulator
ability to inhibit VEGF-induced angiogenic, edema, inflammatory and mucus responses in MAVS deficient animals (MAVS; 30 μg pretreatment, 2 weeks): abrogated
induction of Type I IFNs in mice with null MAVS loci (MAVS; BAL IFN-α and IFN-β): significantly ameliorated
inhibitory effects on OVA-induced inflammation in MAVS null animals (MAVS; OVA sensitization and challenge): abrogated
ability to inhibit VEGF-induced angiogenesis, edema, inflammation and mucin production in Tg+ mice with null mutations of IFNAR1 (IFNAR1; 30 μg pretreatment, 2 weeks): significantly decreased
ability to inhibit Erk, FAK, Akt and eNOS signaling pathways in mice lacking the IFNAR1 receptor (IFNAR1; Tg+ mice lung immunoblot): significantly decreased
effects of Poly(I:C) in PKR null mice (PKR): not significantly altered
